Data on three molecules can be found in ChEMBL document CHEMBL5537158, “Polymyxins with Potent Antibacterial Activity against Colistin-Resistant Pathogens: Fine-Tuning Hydrophobicity with Unnatural Amino Acids” (J Med Chem, 2024).

For series [1], the system named is Escherichia coli. Kind of series: Antimicrobial activity against […] Escherichia coli harboring mcr-1 assessed as bacterial growth inhibition incubated for 20 hrs by broth microdilution method. The series is classed as functional.
Series [2] relates to Klebsiella pneumoniae. Kind of series: Antimicrobial activity against Klebsiella pneumoniae ATCC 13883 assessed as bacterial growth inhibition incubated for 20 hrs by broth microdilution method. It counts as functional.
In series [3] the test system is Pseudomonas aeruginosa. The experiment in a line: Antimicrobial activity against Pseudomonas aeruginosa PAO1 assessed as bacterial growth inhibition incubated for 20 hrs by broth microdilution method. It counts as functional. Background: Broth dilution looks for growth in wells or tubes with falling amounts of substance.
The subject of series [4] is Acinetobacter baumannii. The experiment in a line: Antimicrobial activity against Acinetobacter baumannii ATCC 19606 assessed as bacterial growth inhibition incubated for 20 hrs by broth microdilution method. It counts as functional.
The test system of series [5] is Acinetobacter baumannii. The experiment in a line: Antimicrobial activity against colistin resistant Acinetobacter baumannii ATCC 3658/17 assessed as bacterial growth inhibition incubated for 20 hrs by broth microdilution method. It counts as functional.
The subject of series [6] is Escherichia coli. Kind of series: Antibacterial activity against […] Escherichia coli clinical isolate 2 assessed as bacterial growth inhibition incubated for 20 hrs by broth microdilution method. It counts as functional.
The subject of series [7] is Escherichia coli. Kind of series: Antibacterial activity against […] Escherichia coli clinical isolate 3 assessed as bacterial growth inhibition incubated for 20 hrs by broth microdilution method. The series is classed as functional.
Series [8] concerns Pseudomonas aeruginosa. Kind of series: Antimicrobial activity against Pseudomonas aeruginosa ATCC 27853 assessed as bacterial growth inhibition incubated for 20 hrs by broth microdilution method. The series is classed as functional.
For series [9], the system named is Pseudomonas aeruginosa. Kind of series: Antimicrobial activity against colistin resistant Pseudomonas aeruginosa clinical isolate 1 assessed as bacterial growth inhibition incubated for 20 hrs by broth microdilution method. It counts as functional.
For series [10], the system named is Klebsiella pneumoniae. Kind of series: Antimicrobial activity against colistin resistant Klebsiella pneumoniae clinical isolate 1 assessed as bacterial growth inhibition incubated for 20 hrs by broth microdilution method. The series is classed as functional.
The subject of series [11] is Klebsiella pneumoniae. Kind of series: Antimicrobial activity against colistin resistant Klebsiella pneumoniae clinical isolate 2 assessed as bacterial growth inhibition incubated for 20 hrs by broth microdilution method. It counts as functional.
In series [12] the test system is Klebsiella pneumoniae. Kind of series: Antimicrobial activity against colistin resistant Klebsiella pneumoniae clinical isolate 3 assessed as bacterial growth inhibition incubated for 20 hrs by broth microdilution method. The series is classed as functional.
Series [13] concerns Acinetobacter baumannii. The experiment in a line: Antimicrobial activity against colistin resistant Acinetobacter baumannii clinical isolate 1 assessed as bacterial growth inhibition incubated for 20 hrs by broth microdilution method. It counts as functional.
The test system of series [14] is Acinetobacter baumannii. The experiment in a line: Antimicrobial activity against colistin resistant Acinetobacter baumannii clinical isolate 2 assessed as bacterial growth inhibition incubated for 20 hrs by broth microdilution method. The series is classed as functional.
In series [15] the test system is Acinetobacter baumannii. Kind of series: Antimicrobial activity against colistin resistant Acinetobacter baumannii clinical isolate 3 assessed as bacterial growth inhibition incubated for 20 hrs by broth microdilution method. The series is classed as functional.
Series [16] deals with Acinetobacter baumannii. The experiment in a line: Antimicrobial activity against colistin resistant Acinetobacter baumannii clinical isolate 4 assessed as bacterial growth inhibition incubated for 20 hrs by broth microdilution method. It counts as functional.
Series [17] has as its system Escherichia coli. The experiment in a line: Potency index, ratio of colistin MIC to test compound MIC for antibacterial activity against Escherichia coli harboring mcr-1. It counts as functional.
The subject of series [18] is Pseudomonas aeruginosa. The experiment in a line: Potency index, ratio of colistin MIC to test compound MIC for antibacterial activity against colistin resistant Pseudomonas aeruginosa clinical isolate 1. It counts as functional.
Series [19] deals with Escherichia coli. The experiment in a line: Potency index, ratio of colistin MIC to test compound MIC for antibacterial activity against […] Escherichia coli. It counts as functional.
Series [20] has as its system Erythrocyte. Kind of series: Hemolytic activity in human RBC at 400 ug/ml after 1 hr. As to conditions: erythrocyte, 1 h, at 400 µg/mL. The series is classed as toxicity, cell-based.
For series [21], the system named is HepG2. Kind of series: Cytotoxicity against human HepG2 cells incubated for 48 hrs by MTT assay. It counts as toxicity, cell-based. In general terms: Formazan colour is commonly taken as a measure of viable cells.
Series [22] relates to Escherichia coli. Kind of series: Antibacterial activity against Escherichia coli ATCC 25922 assessed as bacterial growth inhibition incubated for 20 hrs by broth microdilution method. It counts as functional.
Series [23] concerns Klebsiella pneumoniae. The experiment in a line: Antimicrobial activity against colistin resistant Klebsiella pneumoniae ATCC 13883 assessed as bacterial growth inhibition incubated for 20 hrs by broth microdilution method. It counts as functional.
The subject of series [24] is Klebsiella pneumoniae. The experiment in a line: Antimicrobial activity against colistin resistant Klebsiella pneumoniae clinical isolate 5 assessed as bacterial growth inhibition incubated for 20 hrs by broth microdilution method. It counts as functional.
Series [25] concerns Acinetobacter baumannii. Kind of series: Antimicrobial activity against colistin resistant Acinetobacter baumannii ATCC 19606 assessed as bacterial growth inhibition incubated for 20 hrs by broth microdilution method. The series is classed as functional.
The subject of series [26] is Pseudomonas aeruginosa. The experiment in a line: Potency index, ratio of polymyxin B MIC to test compound MIC for antibacterial activity against colistin resistant Pseudomonas aeruginosa clinical isolate 1. It counts as functional.

Values after ≈ are worked out from the molar mass of the structure shown. A value given as a limit tells only on which side of the number the result lay.

For the molecule `CCCCCCCC(=O)N[C@@H](CCN)C(=O)N[C@H](C(=O)N[C@@H](CCN)C(=O)N[C@H]1CCNC(=O)[C@H]([C@@H](C)O)NC(=O)[C@H](CCN)NC(=O)[C@H](CCN)NC(=O)[C@H](CCCc2ccccc2)NC(=O)[C@@H](Cc2ccccc2)NC(=O)[C@H](CCN)NC1=O)[C@@H](C)O`, the MIC in series [1] is 0.5 µg/mL (≈ 0.4 µM); in [2], less than 0.125 µg/mL; in series [3], less than 0.125 µg/mL; in series [4], 0.125 µg/mL (≈ 0.0999 µM); in [5], less than 0.125 µg/mL; in [6] it was 1 µg/mL (≈ 0.799 µM). In addition, the MIC turned out to be 1 µg/mL (≈ 0.799 µM) in series [7]; 0.125 µg/mL (≈ 0.0999 µM) in series [8]; 2 µg/mL (≈ 1.6 µM) in series [9]; 8 µg/mL (≈ 6.39 µM) in series [10]; 4 µg/mL (≈ 3.2 µM) in [11]; 2 µg/mL (≈ 1.6 µM) in series [12]. The MIC in [13] came to 2 µg/mL (≈ 1.6 µM); in [14], 0.5 µg/mL (≈ 0.4 µM); in [15], 1 µg/mL (≈ 0.799 µM); in [16], 2 µg/mL (≈ 1.6 µM). The figures for the Ratio in series [17], in series [18] and in series [19] were 4, 2 and 4, respectively.
Turning to POLYMYXIN B, the Activity in series [20] is recorded as less than 10%. The molecule further showed an IC50 in series [21] greater than 1280 µg/mL.
Regarding `CCCCCCCC(=O)N[C@@H](CCN)C(=O)N[C@H](C(=O)N[C@@H](CCN)C(=O)N[C@H]1CCNC(=O)[C@H]([C@@H](C)O)NC(=O)[C@H](CCN)NC(=O)[C@H](CCN)NC(=O)[C@H](CCCCCC)NC(=O)[C@@H](Cc2ccccc2)NC(=O)[C@H](CCN)NC1=O)[C@@H](C)O`, the MIC in series [22] was less than 0.125 µg/mL; in series [1] it was 0.5 µg/mL (≈ 0.411 µM); in series [2] it was less than 0.123 µg/mL; in [3] it was less than 0.125 µg/mL; in [4] it was 0.125 µg/mL (≈ 0.103 µM); in series [5], 0.25 µg/mL (≈ 0.205 µM). The minimal inhibitory concentration (MIC) is 1 µg/mL (≈ 0.821 µM) in series [6]; 1 µg/mL (≈ 0.821 µM) in series [7]; 0.25 µg/mL (≈ 0.205 µM) in series [8]; 2 µg/mL (≈ 1.64 µM) in series [9]; 8 µg/mL (≈ 6.57 µM) in [23]; 16 µg/mL (≈ 13.1 µM) in series [10]. Further, the minimal inhibitory concentration (MIC) in series [11] is 8 µg/mL (≈ 6.57 µM); in series [12], 4 µg/mL (≈ 3.29 µM); in [24], 16 µg/mL (≈ 13.1 µM); in [25], 0.25 µg/mL (≈ 0.205 µM); in [14], 16 µg/mL (≈ 13.1 µM). The figures for the Ratio in series [17], in series [18] and in series [26] were 4, 2 and 2, respectively.

As a reminder, the MIC is the smallest concentration in the dilution series that meets the test's criterion for growth inhibition. One may read the IC50 as the midpoint of a concentration-inhibition curve. High values mean lower potency, low ones higher potency.
